Assay results reported in patent US11518981B2, “Methods of enhancing engraftment activity of hematopoietic stem cells” (CHILDREN'S HOSPITAL MEDICAL CENTER, priority 2017, dated 2022).

Tests used:
[1] = test system: human MPB derived CD34^+ cells; assay: human CD45^+ engraftment in bone marrow of NSG mice after primary transplant (1 T); type: in vivo; conditions: 24 weeks post 1 T; 72-96 h LV and RV groups
Procedure: Freshly isolated CD34^+ cells were used, wherever possible, and especially for 0 h controls. In some experiments cryopreserved CD34^+ cells were thawed for 4 hrs in IMDM containing cytokines, then washed and used for experiments. […] Cells were kept in culture for a total of either 18-24 hours, 36-42 hours or 72-96 hours. For RV transduction, human CD34^+ cells were pre-stimulated for 2 days (42-48 hours) hours at a cell density of 3×10^5 cells/ml. Retronectin coated tissue culture flasks or plates were preloaded at room temperature with GALV pseudotyped RV twice for one hour each. The vector supernatant was removed and the cells were loaded into the RV loaded retronectin coated flasks. RV transduction was also performed twice 24 hours apart at an MOI ranging from 5 to 10. After total of 72-96 hours in culture, cells were harvested. LV and RV transductions were performed at 37° C. under 5% CO2 in ambient oxygen concentrations (20% 02). For some experiments, LV was added just like RV after 2 days of pre-stimulation. p38 MAPK inhibitors Birb 796 (600 nM), Vx-745 (1 μM), or LY 2228820 (500 nM) (all from Selleckchem) were supplemented to the culture media. […] Human engraftment was analyzed in bone marrow (BM), via BM aspirates performed at 6 and 12 weeks from left and right femurs. […]

[2] = test system: human MPB derived CD34^+ cells; assay: multi-lineage reconstitution (myeloid / B-lymphoid) in bone marrow of NSG mice; type: in vivo
Source text: NOD.Cg-Prkdcscid Il2rgtm1Wjl/SzJ (NSG) mice were purchased from The Jackson Laboratory (Bar Harbor, Me.). All animals were bred and maintained in a specific pathogen-free environment and all experiments were approved by the Institutional Animal Care and Use (IACUC) Committee. Male and female NSG mice aged 8 to 14 weeks old were fed doxycycline chow (TestDiet; Modified Prolab RMH-1500 with 0.0625% doxycycline) a week prior to, during and for 2 weeks post irradiation. Human engraftment was analyzed in bone marrow (BM), via BM aspirates performed at 6 and 12 weeks from left and right femurs. After sacrifice at 24 weeks, marrow from all of the primary mice (1 T) was harvested. Peripheral blood analysis was also performed in some experiments. Secondary transplants (2 T) were performed after mouse CD45^+ cells were depleted from BM harvested from each 1 T mouse separately, using Biotin Rat Anti-Mouse CD45 (BD Biosciences 553078) and Streptavidin Particles Plus-DM (BD Biosciences 557812) and injected into one irradiated (280 cGy) secondary NSG mouse. For calculating competitive repopulating units (CRU) from limiting dilution transplantation, the L-CALC^TM software (Stem Cell Technologies) was used. All of the mice used for this study were randomly assigned to a treatment group. No animals were excluded from the analysis. PE-Cyanine 7 or APC-EFLUOR® 780, APC- or PE-conjugated antibodies directed to human CD34 (BD Biosciences 560710 or 555824), CD38 (eBiosciences, San Diego, Calif. 47-0389-42), CD90 (BioLegend 328120), CD45RA (eBiosciences 17-0458-42), CD49f (BD Biosciences 555736), CD45 (BD 55485 or Biolegend 304026), CD33 (eBiosciences 25-0338-42), CD19 (BD Biosciences 557791), or CD3 (BD Biosciences 555340). Cells ( 5×10^5-1×10^6) were used to label with antibodies as per manufacturer instructions with the appropriate isotype controls. For phospho-flow, primary antibodies phospho-[…]), phospho-p44/42 MAPK (ERK 1⁄2) […]; […]), and phospho-JNK […] PE conjugate; […]) (all from Cell Signaling) were used for staining overnight followed by wash and secondary antibody stain including Goat anti-Rabbit IgG (H+L) or Goat anti-Rabbit IgG (H+L) or Pacific Blue (P-10994) antibody. Apoptosis assay was performed using PE Annexin V Apoptosis Detection Kit (BD Biosciences 559763) according to the manufacturer's instructions. Total ROS and mitochondrial specific ROS were detected using 10 μM CM-H2DCFDA (ThermoFisher Scientific C6827) and 5 μM MITOSOXTM Red (Red Mitochondrial Superoxide Indicator) (ThermoFisher Scientific M36008) respectively, following manufacturer's instructions.

SMILES: Cc1ccc(-n2nc(C(C)(C)C)cc2NC(=O)Nc2ccc(OCCN3CCOCC3)c3ccccc23)cc1 [p38i, 1-[5-tert-butyl-2-(4-methylphenyl)pyrazol-3-yl]-3-[4-(2-morpholin-4-ylethoxy)naphthalen-1-yl]urea]
- human CD45^+ cell engraftment in the NSG BM [1]: improved
- myeloid skewing of the transduced progeny ([2]; 24 week 1 T, cycling HSCs transduced (RV group)): somewhat reduced, but still quite significant
- multi-potentiality of the graft ([2]; 24 week 1 T, gene transfer in first 24 h (non-cycling HSCs), culture up to 96 h): restored the multi-potentiality of the graft at 24 week (1 T) to levels similar to 0 h controls
- lineage balance in transduced HSCs progeny ([2]; limiting dilution transplant, 42 h LV, 6 mo post 1 T): had less effect
- lineage balance in untransduced progeny ([2]; limiting dilution transplant, 42 h LV, 6 mo post 1 T, higher HSPC dosage): sufficient to restore lineage balance
